This is an account of results in US20220193013A1, “Pharmaceutical Composition for Treatment or Prevention of Multiple Inflammatory Disorders” (priority 2020, published 2022).

This assay has as its system DIO mice (C57BL/6NTac, high fat diet). As to the kind of experiment: body weight study in diet-induced obese (DIO) mice, 56 days. It is filed as in vivo, mouse. The following applies: DA 92.4 mg/kg, CQL 50 mg/kg, gavage BID. As to the method:
This example provides results of a study of DA plus another compound (CQL) on body weight in diet-induced (DIO) mice. Adult C57BL/6NTac mice were fed with a high fat diet (60%). Vehicle group (N=15) were treated with distilled water by gavage BID, CQL (N=15) were treated at 50 mg/kg by gavage BID, and DA (N=15) at a dose of 92.4 mg/kg by gavage BID. The study period was for 56 days+2-3 days testing period afterward. […] Metabolic biomarkers were measured on days 28 and 56. Cytokine analysis on Days 28 and 56. Serum levels of GLP-1, GLP-2, and CCK at 1 h after dosing on Days 1 and 56, and at 2 h after dosing on Day 7 (dosing (>6 h fasting prior to dosing until after blood collection); and serum level of PPY on Day 56.

On to `Oc1c(I)cc(Cl)c2cccnc12` [CQL], for which the “serum HbA1c level at Day 28” value is recorded as “significantly reduced” and the “serum HbA1c level at Day 56” value is “considerably increased”. The “daily water intake at Day 28” value (compared to vehicle) was “significantly decreased”.
